Measured values as given in patent US8778958B2, “Synthesis of metabolically stable agents for alcohol and drug abuse” (priority 2008, dated 2014).
Read-outs that look alike come from different tables or passages of the source.

Assays:
Solubility in H2O = conditions: for Solubility in H2O: salt as labelled
κ-opioid receptor = target: T1, κ-opioid receptor (Homo sapiens, UniProt P41145); assay: biochemical; type: binding; conditions: read-out: Ki (nM) ± SEM, κ
T1 construct: expressed in transfected cells; host or cells: CHO cells

μ-opioid receptor = target: T2, μ-opioid receptor (Homo sapiens, UniProt P35372); assay: biochemical; type: binding
T2 construct: expressed in transfected cells; host or cells: CHO cells

δ-opioid receptor = target: T3, δ-opioid receptor (Homo sapiens, UniProt P41143); assay: biochemical; type: binding; conditions: Table 1b; for Ki: N-oxides; for Inhibition of agonist binding, δ: concentration not given
T3 construct: expressed in transfected cells; host or cells: CHO cells

[1] = Ki (nM) ± SEM, μ, Table 1b, N-oxides

T2 sequence (P35372 whole entry): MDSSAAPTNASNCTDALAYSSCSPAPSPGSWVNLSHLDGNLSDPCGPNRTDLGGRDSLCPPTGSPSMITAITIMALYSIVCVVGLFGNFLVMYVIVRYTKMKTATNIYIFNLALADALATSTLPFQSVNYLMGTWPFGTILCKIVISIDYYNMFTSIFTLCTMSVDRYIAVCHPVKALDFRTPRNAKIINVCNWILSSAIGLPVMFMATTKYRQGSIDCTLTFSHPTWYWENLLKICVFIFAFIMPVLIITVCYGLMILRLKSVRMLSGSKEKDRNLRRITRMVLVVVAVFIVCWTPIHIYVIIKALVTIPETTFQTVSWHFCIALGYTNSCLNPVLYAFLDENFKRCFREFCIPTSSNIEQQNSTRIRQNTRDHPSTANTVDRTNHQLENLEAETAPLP
T1 sequence (P41145 whole entry): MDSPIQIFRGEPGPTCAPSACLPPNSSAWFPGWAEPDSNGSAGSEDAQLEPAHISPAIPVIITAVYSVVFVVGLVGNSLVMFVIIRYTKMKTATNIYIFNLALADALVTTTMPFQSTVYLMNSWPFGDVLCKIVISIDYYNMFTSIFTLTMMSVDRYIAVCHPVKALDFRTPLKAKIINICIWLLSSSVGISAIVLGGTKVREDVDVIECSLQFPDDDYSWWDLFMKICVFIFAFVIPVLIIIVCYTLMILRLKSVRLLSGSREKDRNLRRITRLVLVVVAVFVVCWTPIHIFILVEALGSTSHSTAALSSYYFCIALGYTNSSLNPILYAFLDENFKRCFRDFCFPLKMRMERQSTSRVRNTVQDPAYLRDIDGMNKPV
T3 sequence (P41143 whole entry): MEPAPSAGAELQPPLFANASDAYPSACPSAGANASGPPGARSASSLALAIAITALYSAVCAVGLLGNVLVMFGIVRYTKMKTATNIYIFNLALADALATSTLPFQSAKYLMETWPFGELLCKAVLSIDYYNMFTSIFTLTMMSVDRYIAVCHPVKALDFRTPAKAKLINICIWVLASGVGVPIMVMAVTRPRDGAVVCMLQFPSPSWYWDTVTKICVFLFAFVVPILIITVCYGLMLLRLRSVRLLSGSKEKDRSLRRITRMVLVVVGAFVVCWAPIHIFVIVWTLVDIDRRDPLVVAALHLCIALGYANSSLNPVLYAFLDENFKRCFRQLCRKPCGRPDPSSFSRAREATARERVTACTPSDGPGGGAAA

Compound | Ki (κ-opioid receptor) [nM] | Ki (μ-opioid receptor; [1]) [nM] | Ki (δ-opioid receptor; Ki (nM) ± SEM, δ) [nM] | also measured
CN(C(=O)c1ccc(Cl)c(Cl)c1)[C@@H]1CC[C@@]2(O)[C@H]3Cc4ccc(O)c5c4[C@@]2(CCN3CC2CC2)[C@H]1O5.O=C(O)C(=O)O [18b—Oxalate, 6-β-(3′,4′-Dichloro)-N-methylbenzamido-14-hydroxy-17-(cyclopropylmethyl)nordesmorphine oxalate] | – | – | – | Solubility in H2O (Solubility in H2O): 16 mg/mL
CN(C(=O)c1ccc(Br)cc1)[C@H]1CC[C@@]2(O)[C@H]3Cc4ccc(O)c5c4[C@@]2(CCN3CC2CC2)[C@H]1O5.O=C(O)C(=O)O [14a—Oxalate, 6-α-(4′-Bromo)-N-methylbenzamido-14-hydroxy-17-(cyclopropylmethyl)nordesmorphine oxalate] | – | – | – | Solubility in H2O (Solubility in H2O): 6.7 mg/mL
CN(C(=O)c1ccc(I)cc1)[C@@H]1CC[C@@]2(O)[C@H]3Cc4ccc(O)c5c4[C@@]2(CCN3CC2CC2)[C@H]1O5.O=C(O)C(=O)O [15b—Oxalate, 6-β-(4′-Iodo)-N-methylbenzamido-14-hydroxy-17-(cyclopropylmethyl)nordesmorphine oxalate] | – | – | – | Solubility in H2O (Solubility in H2O): 20 mg/mL
O=C(/C=C/c1ccoc1)N[C@@H]1CC[C@@]2(O)[C@H]3Cc4ccc(O)c5c4[C@@]2(CCN3CC2CC2)[C@H]1O5.O=C(O)C(=O)O (relative stereo) [Compound 19b.Oxalate, 17-Cyclopropylmethyl-3,14β-dihydroxy-4,5α-epoxy-6β-[-trans-3-(3-furyl)acrylamido]morphinan oxalate] | – | – | – | solubility (Solubility in H2O; water): 24 mg/mL
Cc1ccc(C(=O)N[C@@H]2CC[C@@]3(O)[C@H]4Cc5ccc(O)c6c5[C@@]3(CCN4CC3CC3)[C@H]2O6)cc1.O=C(O)C(=O)O [Compound 4-oxalate, 6-β-(4′-Methyl)benzamido-14-hydroxy-17-(cyclopropylmethyl) nordesmorphine oxalate] | – | – | – | Solubility in H2O (Solubility in H2O): 2 mg/mL
COc1ccc(C(=O)N[C@H]2CC[C@@]3(O)[C@H]4Cc5ccc(O)c6c5[C@@]3(CC[N+]4([O-])CC3CC3)[C@H]2O6)cc1OC (stereo partly drawn) [Compound 41, 17-Cyclopropylmethyl-3,14β-dihydroxy-4,5α-epoxy-6α-[(3′,4′-dimethoxy)benzamido]morphinan-N-oxide] | 30 ± 3 | 16 ± 2.7 | 51 ± 2.45 | –
17-Cyclopropylmethyl-3,14-β-dihydroxy-4,5α-epoxy-6α-N-methyl-(3′,4′-dichloro)morphinan-N-oxide [Compound 51] | – | – | – | Ki (κ-opioid receptor; Table 1b, N-oxides): 2 ± 0.09 nM; Ki (μ-opioid receptor; read-out: Ki (nM) ± SEM, μ): 7.3 ± 0.2 nM; Ki (δ-opioid receptor; read-out: Ki (nM) ± SEM, δ): 120 ± 5 nM
NC(=NO)c1cccc(C(=O)NC2CCC3(O)C4Cc5ccc(O)c6c5C3(CC[N+]4([O-])CC3CC3)C2O6)c1 (centres unmarked) [Compound 52] | 26 ± 1.81 | 114 ± 3.3 | 1220 ± 45 | –
17-Cyclopropylmethyl-3,14β-dihydroxy-4,5α-epoxy-6α-(6-acetamido-2,3,4,6-tetra-O-benzyl-D-pyranose)morphinan-N-oxide [Compound 36] | – | – | – | Ki (κ-opioid receptor; Table 1b, N-oxides): 18 ± 1 nM; Ki (μ-opioid receptor; read-out: Ki (nM) ± SEM, μ): 308 ± 13 nM; Ki (δ-opioid receptor; read-out: Ki (nM) ± SEM, δ): 1860 ± 144 nM
Cc1ccc(C(=O)N[C@@H]2CC[C@@]3(O)[C@H]4Cc5ccc(O)c6c5[C@@]3(CC[N+]4([O-])CC3CC3)[C@H]2O6)cc1 (stereo partly drawn) [Compound 21, 17-Cyclopropylmethyl-3,14β-dihydroxy-4,5α-epoxy-6β-[(4′-methyl)benzamido]morphinan-N-oxide] | 3.1 ± 0.16 | 5.5 ± 0.2 | 342 ± 12.6 | –
CN(C(=O)c1ccc(C(C)(C)C)cc1)[C@@H]1CC[C@@]2(O)[C@H]3Cc4ccc(O)c5c4[C@@]2(CC[N+]3([O-])CC2CC2)[C@H]1O5 (stereo partly drawn) [Compound 27, 17-Cyclopropylmethyl-3,14β-dihydroxy-4,5α-epoxy-6β-N-methyl[(4′-tert-butyl)benzamido]morphinan-N-oxide] | – | – | – | Ki (κ-opioid receptor; Table 1b, N-oxides): 72 ± 12.6 nM; Ki (μ-opioid receptor; read-out: Ki (nM) ± SEM, μ): 714 ± 66 nM; Ki (δ-opioid receptor; read-out: Ki (nM) ± SEM, δ): 535 ± 43.8 nM
COc1ccc(CC(=O)N[C@@H]2CC[C@@]3(O)[C@H]4Cc5ccc(O)c6c5[C@@]3(CC[N+]4([O-])CC3CC3)[C@H]2O6)cc1 (stereo partly drawn) [Compound 39, 17-Cyclopropylmethyl-3,14β-dihydroxy-4,5α-epoxy-6β-[(4′-methoxy)phenylacetamido]morphinan N-oxide] | 10 ± 1 | 78 ± 20 | 472 ± 78 | –
O=C(N[C@@H]1CC[C@@]2(O)[C@H]3Cc4ccc(O)c5c4[C@@]2(CC[N+]3([O-])CC2CC2)[C@H]1O5)c1ccccc1 (stereo partly drawn) [Compound 32, 17-Cyclopropylmethyl-3,14β-dihydroxy-4,5α-epoxy-6β-(benzamido)morphinan-N-oxide] | 8.5 ± 0.92 | 28 ± 2 | 813 ± 34 | –
CC(C)(C)c1ccc(C(=O)N[C@@H]2CC[C@@]3(O)[C@H]4Cc5ccc(O)c6c5[C@@]3(CC[N+]4([O-])CC3CC3)[C@H]2O6)cc1 (stereo partly drawn) [Compound 23, 17-Cyclopropylmethyl-3,14β-dihydroxy-4,5α-epoxy-6β-[(4′-tert-butyl)benzamido]morphinan-N-oxide] | 1.9 ± 0.14 | 1.7 ± 0.07 | 25 ± 2.38 | –
O=C(N[C@@H]1CC[C@@]2(O)[C@H]3Cc4ccc(O)c5c4[C@@]2(CC[N+]3([O-])CC2CC2)[C@H]1O5)c1ccc(Cl)c(Cl)c1 (stereo partly drawn) [Compound 43, 17-Cyclopropylmethyl-3,14β-dihydroxy-4,5α-epoxy-6β-[(3′,4′-dichloro)benzamido]morphinan-N-oxide] | 2 ± 0.2 | 3.6 ± 0.43 | 212 ± 11 | –
Cc1ccc(C(=O)N[C@@H]2CC[C@@]3(O)[C@H]4Cc5ccc(O)c6c5[C@@]3(CC[N+]4(C)[O-])[C@H]2O6)cc1 (stereo partly drawn) [Compound 55, 17-Methyl-3,14β-dihydroxy-4,5α-epoxy-6β-[(4′-methyl)benzamido]morphinan-N-oxide] | 1190 ± 134 | 244 ± 8.2 | – | Inhibition of agonist binding, δ (δ-opioid receptor): <50% inh
O=C(Cc1cccs1)N[C@@H]1CC[C@@]2(O)[C@H]3Cc4ccc(O)c5c4[C@@]2(CC[N+]3([O-])CC2CC2)[C@H]1O5 (stereo partly drawn) [Compound 25, 17-Cyclopropylmethyl-3,14β-dihydroxy-4,5α-epoxy-6β-[(thiophen-2′-yl)acetamido]morphinan-N-oxide] | – | – | – | Ki (κ-opioid receptor; Table 1b, N-oxides): 13 ± 1 nM; Ki (μ-opioid receptor; read-out: Ki (nM) ± SEM, μ): 34.8 ± 2.08 nM; Ki (δ-opioid receptor; read-out: Ki (nM) ± SEM, δ): 752 ± 8.91 nM
CN(C(=O)c1ccc(Br)cc1)[C@H]1CC[C@@]2(O)[C@H]3Cc4ccc(O)c5c4[C@@]2(CC[N+]3([O-])CC2CC2)[C@H]1O5 (stereo partly drawn) [Compound 26, 17-Cyclopropylmethyl-3,14β-dihydroxy-4,5α-epoxy-6α-N-methyl[(4′-bromo)benzamido]morphinan-N-oxide] | 2.41 ± 0.19 | 5.8 ± 0.21 | 51 ± 5.8 | –
CN(C(=O)c1ccc(I)cc1)[C@H]1CC[C@@]2(O)[C@H]3Cc4ccc(O)c5c4[C@@]2(CC[N+]3([O-])CC2CC2)[C@H]1O5 (stereo partly drawn) [Compound 47, 17-Cyclopropylmethyl-3,14-β-dihydroxy-4,5α-epoxy-6α-N-methyl-[(4′-iodo)benzamido]morphinan-N-oxide] | 5.9 ± 0.4 | 27.6 ± 0.8 | 290 ± 17 | –
17-Cyclopropylmethyl-3,14-β-dihydroxy-4,5α-epoxy-6β-N-methyl-(4′-iodo)morphinan-N-oxide [Compound 62] | – | – | – | Ki (κ-opioid receptor; Table 1b, N-oxides): 224 ± 15.7 nM; Ki (μ-opioid receptor; read-out: Ki (nM) ± SEM, μ): 408 ± 11.5 nM; Inhibition of agonist binding, δ (δ-opioid receptor): <50% inh
CN(C(=O)c1ccc(Cl)cc1)[C@H]1CC[C@@]2(O)[C@H]3Cc4ccc(O)c5c4[C@@]2(CC[N+]3([O-])CC2CC2)[C@H]1O5 (stereo partly drawn) [Compound 50, 17-Cyclopropylmethyl-3,14-β-dihydroxy-4,5α-epoxy-6α-N-methyl-[(4′-chloro)benzamido]morphinan-N-oxide] | – | – | – | Ki (κ-opioid receptor; Table 1b, N-oxides): 77 ± 8 nM; Ki (μ-opioid receptor; read-out: Ki (nM) ± SEM, μ): 369 ± 18 nM; Ki (δ-opioid receptor; read-out: Ki (nM) ± SEM, δ): 3330 ± 160 nM
O=C(N[C@@H]1CC[C@@]2(O)[C@H]3Cc4ccc(O)c5c4[C@@]2(CC[N+]3([O-])CC2CC2)[C@H]1O5)c1ccc([N+](=O)[O-])cc1 (stereo partly drawn) [Compound 40, 17-Cyclopropylmethyl-3,14β-dihydroxy-4,5α-epoxy-6β-[(4′-nitro)benzamido]morphinan-N-oxide] | 6.7 ± 0.4 | 38 ± 6.5 | 590 ± 590 | –
O=C(N[C@H]1CC[C@@]2(O)[C@H]3Cc4ccc(O)c5c4[C@@]2(CC[N+]3([O-])CC2CC2)[C@H]1O5)c1ccccc1 (stereo partly drawn) [Compound 37, 17-Cyclopropylmethyl-3,14β-dihydroxy-4,5α-epoxy-6α-(benzamido)morphinan-N-oxide] | 64 ± 10 | 37 ± 2.6 | 822 ± 124 | –
COC(=O)c1ccc(C(=O)N[C@@H]2CC[C@@]3(O)[C@H]4Cc5ccc(O)c6c5[C@@]3(CC[N+]4([O-])CC3CC3)[C@H]2O6)cc1 (stereo partly drawn) [Compound 38, 17-Cyclopropylmethyl-3,14β-dihydroxy-4,5α-epoxy-6β-[(4′-carbomethoxy)benzamido]morphinan-N-oxide] | 51 ± 6 | 30 ± 2.1 | 1390 ± 279 | –
CN(C(=O)c1ccc(I)cc1)C1CCC2(O)C3Cc4ccc(O)c5c4C2(CC[N+]3([O-])CC2CC2)C1O5 (stereo not drawn) [Compound 54, 17-Cyclopropylmethyl-3,14-β-dihydroxy-4,5α-epoxy-6β-N-methyl-[(4′-iodo)benzamido]morphinan-N-oxide] | 117 ± 10 | 148 ± 9.3 | 3060 ± 271 | –
O=C(N[C@@H]1CC[C@@]2(O)[C@H]3Cc4ccc(O)c5c4[C@@]2(CC[N+]3([O-])CC2CC2)[C@H]1O5)c1ccc(C(F)(F)F)cc1 (stereo partly drawn) [Compound 22, 17-Cyclopropylmethyl-3,14β-dihydroxy-4,5α-epoxy-6β-[(4′-trifluoromethyl)benzamido]morphinan-N-oxide] | 1.9 ± 0.11 | 1.4 ± 0.03 | 117 ± 5.18 | –
CN(C(=O)c1ccc(C(C)(C)C)cc1)[C@H]1CC[C@@]2(O)[C@H]3Cc4ccc(O)c5c4[C@@]2(CC[N+]3([O-])CC2CC2)[C@H]1O5 (some centres unmarked) [Compound 48] | – | – | – | Ki (κ-opioid receptor; Table 1b, N-oxides): 14 ± 1 nM; Ki (μ-opioid receptor; read-out: Ki (nM) ± SEM, μ): 26 ± 2 nM; Ki (δ-opioid receptor; read-out: Ki (nM) ± SEM, δ): 148 ± 10 nM
CN(C)c1ccc(C(=O)N[C@@H]2CC[C@@]3(O)[C@H]4Cc5ccc(O)c6c5[C@@]3(CC[N+]4([O-])CC3CC3)[C@H]2O6)cc1 (stereo partly drawn) [Compound 24, 17-Cyclopropylmethyl-3,14β-dihydroxy-4,5α-epoxy-6β-[(4′-dimethylamino)benzamido]morphinan-N-oxide] | – | – | – | Ki (κ-opioid receptor; Table 1b, N-oxides): 227 ± 48.1 nM; Ki (μ-opioid receptor; read-out: Ki (nM) ± SEM, μ): 478 ± 23 nM; Ki (δ-opioid receptor; read-out: Ki (nM) ± SEM, δ): 5850 ± 560 nM
